From patent US7846960B2, “FXR agonists” (Eli Lilly and Company, priority 2006, dated 2010)

Columns and labels:
LDLR−/− mice = test: LDLR−/− Serum Lipid Modulation; assay type: in vivo; conditions: male LDLR−/− mice on western diet, 10 mg/kg, once daily oral gavage for seven days
Procedure: Acclimate animals for two weeks prior to study initiation. House mice individually in polycarbonate cages with filter tops, and maintain mice on a 12:12 hour light-dark cycle (lights on at 6:00 AM) at 21° C. Provide deionized water ad libitum and maintain for two weeks on ‘western diet’ TD 88137 Diet (42% fat, 0.15% cholesterol, Harlan Teklad) ad libitum. Optimize groups of five ten-week-old male LDLR−/− mice based on serum triglyceride and cholesterol levels. Dose groups once daily by oral gavage with various doses of the test compound dissolved in 5% EtOH/5% Solutol in NaCMC (1%), SLS (0.5%), antifoam (0.05%), Povidone (0.085%) for seven days. At the end of the seven-day dosing period, collect blood by cardiac puncture after asphyxiation in a CO2 chamber. […] Lipoproteins were separated by fast protein liquid chromatography, and cholesterol was quantitated with an in-line detection system. […] The colored product produced in the presence of cholesterol was monitored in the flow stream at 505 nm, and the analog voltage from the monitor was converted to a digital signal for collection and analysis. The change in voltage corresponding to change in cholesterol concentration was plotted vs. time, and the area under the curve corresponding to the elution of VLDL-C and HDL-C was calculated using Turbochrome (version 4.12F12) software from PerkinElmer (Norwalk, Conn.).

FXR = target: T1, FXR (Homo sapiens, UniProt Q96RI1); test: bDNA Assay for SHP mRNA; assay type: cell-based; conditions: human hepatocarcinoma Huh7 cells, 24 hours treatment, SHP mRNA by bDNA; read-out: SHP gene activation EC50
T1 construct: Plate human hepatocarcinoma Huh7 cells grown in DMEM:F12 with 10% fetal bovine serum; endogenous in cells; host or cells: Huh7 human hepatocarcinoma cells
T1 sequence (Q96RI1 1-486): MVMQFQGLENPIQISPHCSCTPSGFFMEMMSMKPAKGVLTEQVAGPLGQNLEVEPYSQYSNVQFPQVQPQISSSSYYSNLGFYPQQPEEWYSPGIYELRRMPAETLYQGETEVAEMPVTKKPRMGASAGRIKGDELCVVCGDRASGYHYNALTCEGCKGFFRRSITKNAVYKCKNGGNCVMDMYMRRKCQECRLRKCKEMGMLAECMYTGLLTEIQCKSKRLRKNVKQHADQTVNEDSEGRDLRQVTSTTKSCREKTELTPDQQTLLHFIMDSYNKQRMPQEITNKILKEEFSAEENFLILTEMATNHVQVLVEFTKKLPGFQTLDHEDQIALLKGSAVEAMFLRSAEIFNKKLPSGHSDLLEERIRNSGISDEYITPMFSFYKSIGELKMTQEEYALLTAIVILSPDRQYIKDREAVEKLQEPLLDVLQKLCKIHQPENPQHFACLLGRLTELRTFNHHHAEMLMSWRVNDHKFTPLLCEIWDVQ
Source text: FXR is a key, direct transcriptional regulator of the Small Heterodimer Partner (SHP) gene, accession number NM_021969, an atypical member of the nuclear receptor family that lacks a DNA-binding domain. SHP interacts with several conventional and orphan members of the nuclear receptor superfamily, including retinoid receptors and thyroid hormone receptor. SHP inhibits transactivation potential of superfamily members with which it interacts. […] Since FXR directly transactivates transcription of the SHP gene, the SHP branched DNA method (bDNA) quantitates FXR activation by ligands. Thus, increased expression of SHP mRNA, as determined by increase bDNA signal, signifies engagement of FXR by an agonist.
Plate human hepatocarcinoma Huh7 cells grown in DMEM:F12 with 10% fetal bovine serum and in 96 well plate at the density of 1×10^5/well. After overnight incubation, treat the cells with test compounds at various concentrations for 24 hours. […]
Incubate the lysis buffer for 15-minute at 37° C., then transfer 100 μL of the lysate from each well to the corresponding wells of the capture plate. […] Label the mRNA to be measured by addition of 100 μL QuantiGene® label probe working buffer then incubate for 60 minutes at 46° C. […] Incubate the plates at 37° C. for up to 30 minutes and then read on a luminometer (Packard Fusion Alpha, 1 second detection) to detect the luminescent signal. […]

EC50 (FXR) [nM]	Structure (SMILES)	lowering of total cholesterol (LDLR−/− mice) [%]	lowering of triglycerides (LDLR−/− mice) [%]
–	Cc1cc(CN(C)c2ccc(OCc3c(C(C)C)cnn3-c3c(Cl)cccc3Cl)cc2C)cc(C(=O)O)c1 [Example 199, 3-[({4-[2-(2,6-Dichloro-phenyl)-4-isopropyl-2H-pyrazol-3-ylmethoxy]-2-methyl-phenyl}-methyl-amino)-methyl]-5-methyl-benzoic acid]	60	63
~53	CCN(Cc1cccc(C(=O)O)c1)c1ccc(OCc2c(C(C)C)cnn2-c2c(Cl)cccc2Cl)cc1C [Example 90, 3-[({4-[2-(2,6-Dichloro-phenyl)-4-isopropyl-2H-pyrazol-3-ylmethoxy]-2-methyl-phenyl}-ethyl-amino)-methyl]-benzoic acid]	–	–
